# Results: patent US11123683B2, “Carbon dioxide absorbent and apparatus of separating and recovering carbon dioxide” (Kabushiki Kaisha Toshiba, priority 2017, dated 2021)
# Assay: pKa of amino group of the heterocyclic ring
# Type: physicochemical
# Settings: amino group in heterocyclic ring
row,Structure (SMILES),pKa
1,CC(=O)CN1CCNCC1 [1-(1-piperazinyl)-2-propanone],9.1
2,"O=C1CNCC(=O)N1 [2,6-piperazinedione]",4.3
3,CN1CC(CO)NCC1=O (stereo not drawn) [5-hydroxymethyl-1-methyl-2-piperazinone],6.6
